The values that follow come from article PMC10221222 (Pharmaceutics, 2023).

Data set [1] has as its system A549 (non-small cell lung cancer). To be noted: MTT, 96 h exposure; cited from earlier work.
The test system of data set [2] is CH1/PA-1 (ovarian teratocarcinoma). To be noted: MTT, 96 h exposure; cited from earlier work.
In data set [3] the test system is SW480 (colon carcinoma). To be noted: MTT, 96 h exposure; cited from earlier work.
Data set [4] in a line: Reduction by ascorbic acid followed by time-dependent 1H NMR. It is filed as physicochemical. Conditions: for Reduction Half-Time: 1 mM Pt, 25 eq. ascorbic acid, phosphate-buffered D2O pD 7.4, ambient temperature; for percentage of the reduced species when measurement was stopped before the half-time: 1:25 ascorbic acid, pD 7.4, ambient temperature, at the time given as bound of the half-time. As to the method: The reduction of platinum(IV) complexes and representatives of each series of conjugates by ascorbic acid was observed by ^1H NMR spectroscopic measurements at ambient temperature. An amount of 1 mM solutions of platinum(IV) complexes 1–3, 5–7 as well as of the conjugates C2, C11, C13, C22–C24 referred to their corresponding platinum units were prepared in a D2O phosphate-buffered solution (50 mM) at physiological pD = 7.4. Afterwards, ascorbic acid was added as a reducing agent (25 mM, 25 eq.) and ^1H NMR measurements were performed for several days. The reduction behavior for substances 1–3, 5, 6, C2, C11, C13, C22, C23 was monitored by the resulting decrease in intensity of the acetato signal (release of acetic acid). The percentage of reduced species was determined by using the integration ratios of these two signals. Contrarily, ratios of signals of the succinato ligands and free succinic acid were consulted for the reduction determination of substances 7 and C24. However, the reduction half-time of C24 could not be obtained due to the superimposition of the succinato peaks with other signals.
Moreover, the reduction behavior of conjugates in comparison to unattached platinum(IV) complexes was investigated by time-dependent ^1H NMR spectroscopy (Table 3). In general, the reduction behavior is influenced by the nature of the ligands coordinated to the platinum(IV) core. […] In accordance with previous studies, the cisplatin core of substance 1 led to a faster reduction with a reduction half-time of 6 h, whereas only 6% of the carboplatin(IV) analog 2 was reduced after 95 h. Similar to complex 1, the two chlorido ligands of compound 6 allow fast electron transfer, thereby supporting rapid reduction. […] A potential connection between bulkiness and facilitated reduction has been reported in the literature. As further expected, the influence between G2 and G4 dendrimers on the reduction behavior is marginal due to the huge distance to the platinum(IV) core. Therefore, no significant difference in the rate of reduction between conjugates of G2 and G4 dendrimers was observed based on the measurements of C2 and C13, respectively.

Data set [5] concerns A549 (non-small cell lung cancer). As to the kind of experiment: MTT cytotoxicity assay, 96 h exposure, A549 cells. Conditions: pertains to dendrimer concentration for C1–C24. In kind it is cell-based, human. The protocol: (§1) Culture of and 96 h cytotoxicity tests in the human cell lines CH1/PA-1 (ovarian teratocarcinoma), SW480 (colon carcinoma) and A549 (non-small cell lung cancer) were performed as described previously, with the exception that test compounds were dissolved either in sterile water or supplemented MEM and then serially diluted in the latter medium.
(§2) Three human cancer cell lines differing in their chemosensitivity were employed for testing the cytotoxic potencies of all compounds: the broadly sensitive ovarian teratocarcinoma cell line CH1/PA-1, the multidrug-resistant non-small cell lung cancer cell line A549 and the colon cancer cell line SW480 with mostly intermediate sensitivity. This pattern of sensitivity also reflects throughout the data compiled here.

Data set [6] concerns CH1/PA-1 (ovarian teratocarcinoma). As to the kind of experiment: MTT cytotoxicity assay, 96 h exposure, CH1/PA-1 cells. In kind it is cell-based, human. Conditions: pertains to dendrimer concentration for C1–C24. As to the method:
as §1
Three human cancer cell lines differing in their chemosensitivity were employed for testing the cytotoxic potencies of all compounds: the broadly sensitive ovarian teratocarcinoma cell line CH1/PA-1, the multidrug-resistant non-small cell lung cancer cell line A549 and the colon cancer cell line SW480 with mostly intermediate sensitivity.
For orientation: Tetrazolium dyes change colour on reduction, which living cells bring about.

Data set [7] deals with SW480 (colon carcinoma). As to the kind of experiment: MTT cytotoxicity assay, 96 h exposure, SW480 cells. It is filed as cell-based, human. Conditions: pertains to dendrimer concentration for C1–C24. As to the method:
as §1, §2

On the set-up of data set [8]: method as in PMID 10222430. To be noted: cited from earlier work.
Data set [9] can be described thus: Tumor, organ and blood distribution of platinum by ICP-MS. In kind it is in vivo, male CT26-allograft-bearing BALB/c mice. To be noted: 24 h after second application. As to the method: Blood was taken after 30 min and 24 h after the first application from the facial vein and terminally by cardiac puncture 24 h after the second application. To separate serum from blood pellet, blood was twice spun down at 900 g for 10 min at 4 °C. The platinum amount of all samples was measured by ICP-MS.
Renal excretion and glomerular filtration are typical for ≤G4 PAMAM dendrimers and in general for nanoparticles smaller than 5 nm. […] Additionally, the influence of the molecular weight of nanoparticles on the biodistribution behavior was reported previously. […] On the contrary, the efficient kidney accumulation of this dendrimer preparation might also be considered in kidney-specific drug delivery approaches.

Data set [10] concerns CT26 murine colon cancer cells. As to the kind of experiment: MTT assay in murine cell line CT26. It is filed as cell-based. To be noted: 72 h exposure.
Protocol: The MTT assay in the murine cell line CT26 was performed as described in [25].
cells, obtained by MTT assays with 72 h exposure time.
Data set [11] concerns CT26 murine colon cancer allograft. As to the kind of experiment: Efficacy study in CT26-allograft-bearing mice (tumor volume, survival). In kind it is in vivo, BALB/c mice. Conditions: vs solvent control; i.v. twice a week for two weeks; C12 7.5 mg/kg, cisplatin 3 mg/kg. The protocol: All drugs were dissolved in 0.9% NaCl.
The promising effects further translate into a prolongation trend of animal survival (Figure 4). While in the cisplatin group, weight loss was critical in addition to tumor necrosis, even smaller tumors tended to get necrotic and broke up in C12-treated animals, making the sacrifice of the animals necessary due to ethical guidelines.

Read-outs that look alike come from different tables or passages of the source.

`O=C1[O][Pt]2([NH][C@@H]3CCCC[C@H]3[NH]2)[O]C1=O` [Oxaliplatin, reference compound]: the IC50 (in general, the concentration at which inhibition is half-maximal) was 0.98 ± 0.21 µM in [1], 0.18 ± 0.01 µM in data set [2] and 0.29 ± 0.05 µM with SW480 (colon carcinoma) [3].

“(OC-6-44)-Acetaodiammine(3-carboxypropanoato)(cyclobutane-1,1-dicarboxylato)platinum(IV) [Complex 2]”: the figures for the IC50 (in [1]; in data set [2]; with SW480 (colon carcinoma) [3]) were > 200 µM, 16 ± 6 µM and > 200 µM, respectively. The “Reduction Half-Time” value in data set [4] is > 95 h. Also, the “percentage of the reduced species when measurement was stopped before the half-time” value (from here on “percentage of the reduced species”) in data set [4] came out at 6%.

For “(OC-6-54)-Acetato(3-carboxypropanoato)(^13C2)oxalato(1R,2R,4R/1S,2S,4S)-(4-trifluoromethyl-cyclohexane-1,2-diamine)platinum(IV) [Complex 5]”, the results for the IC50 (in data set [5]; in data set [6]; in the data set with SW480 (colon carcinoma) [7]) were 54 ± 6 µM, 6 ± 0.9 µM and 33 ± 5 µM, respectively. For the same compound, in data set [4], the “Reduction Half-Time” value was > 93 h. Also, the “percentage of the reduced species” value in [4] is given as ~23%.

“(OC-6-44)-(3-carboxypropanoato)(1R,2R-cyclohexanem-1,2-diamine)hydroxidooxalatoplatinum(IV) [Complex 7]”: the 50% inhibitory concentration (IC50) was determined as 66 ± 2 µM in data set [5], 5.2 ± 0.8 µM in data set [6] and 20 ± 3 µM in the data set with SW480 (colon carcinoma) [7]. Moreover, the “Reduction Half-Time” value in data set [4] is on record as ~29 h.

In the case of `N.N.[Cl][Pt][Cl]` [Cisplatin], the maximum tolerated dosage in data set [8] is recorded as 3 mg/kg. Besides, in data set [9] (30 min and 24 h after first), the “platinum content of blood cells” value was “blood cells contained enhanced platinum contents”. Also, the “platinum levels in lung tissue” value in data set [9] is “higher levels were detected in lung tissue”. Also, the concentration for half-maximal inhibition (IC50) was 1.85 µM in data set [10], 3.8 ± 1 µM in [1], 0.073 ± 0.001 µM in data set [2] and 2.3 ± 0.2 µM with SW480 (colon carcinoma) [3]. In addition, in [11], the “maximum tumor growth inhibition effect” value turned out to be 47.6%.

Take “(OC-6-44)-Acetato(3-carboxypropanoato)dichlorido(1R,2R-cyclohexane-1,2-diamine)platinum(IV) [Complex 6]”: the figures for the half-maximal inhibitory concentration (IC50) (in [5]; in [6]; with SW480 (colon carcinoma) [7]) were 2.8 ± 0.1 µM, 0.44 ± 0.1 µM and 0.85 ± 0.14 µM, respectively. Further, the “Reduction Half-Time” value in data set [4] is given as ~27 h.

On to “(OC-6-44)-Acetato(3-carboxypropanoato)(1R,2R-cyclohexane-1,2-diamine)oxalatoplatinum(IV) [Complex 3]”, for which the IC50 in data set [1] was 70 ± 29 µM; in data set [2] it was 4.1 ± 0.6 µM; with SW480 (colon carcinoma) [3] it was 22 ± 8 µM. Further, the “Reduction Half-Time” value in data set [4] is reported as > 165 h. For the same compound, the “percentage of the reduced species” value in data set [4] was determined as 14%.

`N.N.O=C([O-])C1(C(=O)[O-])CCC1.[Pt+2]` [Carboplatin, reference compound]: the 50% inhibitory concentration (IC50) is 38 ± 3 µM in [1], 0.79 ± 0.11 µM in [2] and 42 ± 10 µM with SW480 (colon carcinoma) [3].

Turning to “(OC-6-44)-Acetatodiammine(3-carboxypropanoato)dichloridoplatinum(IV) [Complex 1]”, the figures for the half-inhibitory concentration (IC50) (in [1]; in data set [2]; in the data set on SW480 (colon carcinoma) [3]) were 99 ± 17 µM, 1.2 ± 0.5 µM and 47 ± 11 µM, respectively. Moreover, the “Reduction Half-Time” value in data set [4] is ~6 h.
